Source: ChEMBL document CHEMBL1201861, “Genomics of Drug Sensitity in Cancer screening data, Wellcome Trust Sanger Institute”

Tests used:
KARPAS-422 = assay: cells; assay type: functional, cell-based, Homo sapiens; details: Homo sapiens, KARPAS-422
Description: SANGER: Inhibition of human KARPAS-422 cell growth in a cell viability assay.

CAL-33 = assay: cells; assay type: functional, cell-based, Homo sapiens; details: Homo sapiens, CAL-33;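 also: growth inhibition of CAL-33 cells, read out with a cell viability assay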
Description: SANGER: Inhibition of human CAL-33 cell growth in a cell viability assay.

EB2 = assay: cells; assay type: functional, cell-based, Homo sapiens; details: Homo sapiens, EB2;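 also: growth inhibition of EB2 cells, read out with a cell viability assay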
Description: SANGER: Inhibition of human EB2 cell growth in a cell viability assay.

SCC-4 = assay: cells; assay type: functional, cell-based, Homo sapiens; details: Homo sapiens, SCC-4;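 also: growth inhibition of human SCC-4 cells, read out as cell viability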
Description: SANGER: Inhibition of human SCC-4 cell growth in a cell viability assay.

SN12C = assay: cells; assay type: functional, cell-based, Homo sapiens; details: Homo sapiens, SN12C;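 also: growth inhibition of human SN12C cells, measured by a cell viability assay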
Description: SANGER: Inhibition of human SN12C cell growth in a cell viability assay.

BXPC-3 = assay: cells; assay type: functional, cell-based, Homo sapiens; details: Homo sapiens, BXPC-3;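 also: growth inhibition of human BxPC-3 cells, read out by a cell viability assay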
Description: SANGER: Inhibition of human BxPC-3 cell growth in a cell viability assay.

GMS-10 = assay: cells; assay type: functional, cell-based, Homo sapiens; details: Homo sapiens, GMS-10;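 also: growth inhibition of GMS-10 cells, read out as cell viability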
Description: SANGER: Inhibition of human GMS-10 cell growth in a cell viability assay.

ECC4 = assay: cells; assay type: functional, cell-based, Homo sapiens; details: Homo sapiens, ECC4;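 also: growth inhibition of ECC4 cells, read out with a cell viability assay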
Description: SANGER: Inhibition of human ECC4 cell growth in a cell viability assay.

BHY = assay: cells; assay type: functional, cell-based, Homo sapiens; details: Homo sapiens, BHY
Description: SANGER: Inhibition of human BHY cell growth in a cell viability assay.

SCC-3 = assay: cells; assay type: functional, cell-based, Homo sapiens; details: Homo sapiens, SCC-3;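 also: cell viability assay measuring inhibition of SCC-3 cell growth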
Description: SANGER: Inhibition of human SCC-3 cell growth in a cell viability assay.

LN-405 = assay: cells; assay type: functional, cell-based, Homo sapiens; details: Homo sapiens, LN-405
Description: SANGER: Inhibition of human LN-405 cell growth in a cell viability assay.

YKG-1 = assay: cells; assay type: functional, cell-based, Homo sapiens; details: Homo sapiens, YKG-1
Description: SANGER: Inhibition of human YKG-1 cell growth in a cell viability assay.

NCI-H2087 = assay: cells; assay type: functional, cell-based, Homo sapiens; details: Homo sapiens, NCI-H2087;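 also: growth inhibition determined with a cell viability readout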
Description: SANGER: Inhibition of human NCI-H2087 cell growth in a cell viability assay.

OVCAR-8 = assay: cells; assay type: functional, cell-based, Homo sapiens; details: Homo sapiens, OVCAR-8;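 also: growth inhibition of human OVCAR-8 cells, read out by a cell viability assay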
Description: SANGER: Inhibition of human OVCAR-8 cell growth in a cell viability assay.

MKN-45 = assay: cells; assay type: functional, cell-based, Homo sapiens; details: Homo sapiens, MKN-45;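 also: growth inhibition of human MKN-45 cells, measured with a cell viability assay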
Description: SANGER: Inhibition of human MKN45 cell growth in a cell viability assay.

NCI-H1437 = assay: cells; assay type: functional, cell-based, Homo sapiens; details: Homo sapiens, NCI-H1437;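 also: growth inhibition of human NCI-H1437 cells, read out by a cell viability assay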
Description: SANGER: Inhibition of human NCI-H1437 cell growth in a cell viability assay.

SW1088 = assay: cells; assay type: functional, cell-based, Homo sapiens; details: Homo sapiens, SW1088;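 also: growth inhibition of human SW1088 cells, read out by a cell viability assay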
Description: SANGER: Inhibition of human SW1088 cell growth in a cell viability assay.

MDA-MB-175-VII = assay: cells; assay type: functional, cell-based, Homo sapiens; details: Homo sapiens, MDA-MB-175-VII
MeWo = assay: cells; assay type: functional, cell-based, Homo sapiens; details: Homo sapiens, MeWo;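 also: growth inhibition of MeWo cells, determined by a cell viability readout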
Description: SANGER: Inhibition of human Mewo cell growth in a cell viability assay.

RPMI 8402 = assay: SANGER: Inhibition of human RPMI-8402 cell growth in a cell viability assay.; assay type: functional, cell-based; details: Homo sapiens, RPMI 8402; read-out: IC50
NCI-H292 = assay: cells; assay type: functional, cell-based, Homo sapiens; details: Homo sapiens, NCI-H292;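 also: growth inhibition of NCI-H292 cells, read out with a cell viability assay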
Description: SANGER: Inhibition of human NCI-H292 cell growth in a cell viability assay.

REH = assay: cells; assay type: functional, cell-based, Homo sapiens; details: Homo sapiens, REH;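 also: growth inhibition of REH cells determined with a cell viability read-out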
Description: SANGER: Inhibition of human REH cell growth in a cell viability assay.

COLO-792 = assay: cells; assay type: functional, cell-based, Homo sapiens; details: Homo sapiens, COLO-792
Description: SANGER: Inhibition of human COLO-792 cell growth in a cell viability assay.

PF-382 = assay: cells; assay type: functional, cell-based, Homo sapiens; details: Homo sapiens, PF-382
Description: SANGER: Inhibition of human PF-382 cell growth in a cell viability assay.

8505C = assay: cells; assay type: functional, cell-based, Homo sapiens; details: Homo sapiens, 8505C
Description: SANGER: Inhibition of human 8505C cell growth in a cell viability assay.

HOP-92 = assay: cells; assay type: functional, cell-based, Homo sapiens; details: Homo sapiens, HOP-92;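 also: cell viability readout, with IC50 reflecting inhibition of HOP-92 cell growth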
Description: SANGER: Inhibition of human HOP-92 cell growth in a cell viability assay.

Ca9-22 = assay: cells; assay type: functional, cell-based, Homo sapiens; details: Homo sapiens, Ca9-22;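 also: growth inhibition of Ca9-22 cells, read out with a cell viability assay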
Description: SANGER: Inhibition of human Ca9-22 cell growth in a cell viability assay.

UMC-11 = assay: cells; assay type: functional, cell-based, Homo sapiens; details: Homo sapiens, UMC-11;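 also: growth inhibition of UMC-11 cells, read out with a cell viability assay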
Description: SANGER: Inhibition of human UMC-11 cell growth in a cell viability assay.

Raji = assay: cells; assay type: functional, cell-based, Homo sapiens; details: Homo sapiens, Raji;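 also: cell viability assay measuring inhibition of Raji cell growth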
Description: SANGER: Inhibition of human Raji cell growth in a cell viability assay.

786-0 = assay: cells; assay type: functional, cell-based, Homo sapiens; details: Homo sapiens
Description: SANGER: Inhibition of human 786-0 cell growth in a cell viability assay.

COR-L105 = assay: cells; assay type: functional, cell-based, Homo sapiens; details: Homo sapiens, COR-L105
Description: SANGER: Inhibition of human COR-L105 cell growth in a cell viability assay.

GAMG = assay: cells; assay type: functional, cell-based, Homo sapiens; details: Homo sapiens, GAMG;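 also: cell growth inhibition measured by a viability assay in the GAMG human cell line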
Description: SANGER: Inhibition of human GAMG cell growth in a cell viability assay.

HCT-116 = assay: cells; assay type: functional, cell-based, Homo sapiens; details: Homo sapiens, HCT-116
Description: SANGER: Inhibition of human HCT-116 cell growth in a cell viability assay.

SK-MEL-24 = assay: cells; assay type: functional, cell-based, Homo sapiens; details: Homo sapiens, SK-MEL-24
Description: SANGER: Inhibition of human SK-MEL-24 cell growth in a cell viability assay.

BPH-1 = assay: cells; assay type: functional, cell-based, Homo sapiens; details: Homo sapiens, BPH-1;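 also: cell viability assay measuring growth inhibition of human BPH-1 cells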
Description: SANGER: Inhibition of human BPH-1 cell growth in a cell viability assay.

NCI-H2081 = assay: cells; assay type: functional, cell-based, Homo sapiens; details: Homo sapiens, NCI-H2081;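 also: growth inhibition of human NCI-H2081 cells, read out with a cell viability assay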
Description: SANGER: Inhibition of human NCI-H2081 cell growth in a cell viability assay.

NCI-H2196 = assay: cells; assay type: functional, cell-based, Homo sapiens; details: Homo sapiens, NCI-H2196;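 also: cell viability assay used as the readout of growth inhibition in NCI-H2196 cells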
Description: SANGER: Inhibition of human NCI-H2196 cell growth in a cell viability assay.

SNU-387 = assay: cells; assay type: functional, cell-based, Homo sapiens; details: Homo sapiens, SNU-387
Description: SANGER: Inhibition of human SNU-387 cell growth in a cell viability assay.

HCC70 = assay: cells; assay type: functional, cell-based, Homo sapiens; details: Homo sapiens, HCC70;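 also: cell viability assay measuring how strongly the compound suppresses proliferation of HCC70 cells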
Description: SANGER: Inhibition of human HCC70 cell growth in a cell viability assay.

SBC-5 = assay: cells; assay type: functional, cell-based, Homo sapiens; details: Homo sapiens, SBC-5;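 also: cell viability assay read-out, IC50 is the concentration that inhibits growth of the cells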
Description: SANGER: Inhibition of human SBC-5 cell growth in a cell viability assay.

NCI-H1703 = assay: cells; assay type: functional, cell-based, Homo sapiens; details: Homo sapiens, NCI-H1703;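 also: growth inhibition of NCI-H1703 cells, read out via a cell viability assay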
Description: SANGER: Inhibition of human NCI-H1703 cell growth in a cell viability assay.

ESS-1 = assay: cells; assay type: functional, cell-based, Homo sapiens; details: Homo sapiens, ESS-1;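 also: growth inhibition of human ESS-1 cells, read out by a cell viability assay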
Description: SANGER: Inhibition of human ESS-1 cell growth in a cell viability assay.

TE-15 = assay: cells; assay type: functional, cell-based, Homo sapiens; details: Homo sapiens, TE-15;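 also: cell viability readout of growth inhibition in TE-15 cells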
Description: SANGER: Inhibition of human TE-15 cell growth in a cell viability assay.

HuP-T4 = assay: cells; assay type: functional, cell-based, Homo sapiens; details: Homo sapiens, HuP-T4;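 also: cell viability assay measuring how much HuP-T4 cell growth is inhibited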
Description: SANGER: Inhibition of human HuP-T4 cell growth in a cell viability assay.

HPAF-II = assay: cells; assay type: functional, cell-based, Homo sapiens; details: Homo sapiens, HPAF-II;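 also: growth inhibition of HPAF-II cells, read out with a cell viability assay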
Description: SANGER: Inhibition of human HPAF-II cell growth in a cell viability assay.

Structure (SMILES): Nc1ccn([C@@H]2O[C@H](CO)[C@@H](O)C2(F)F)c(=O)n1 [GEMCITABINE]
- IC50 (KARPAS-422): 85.8 nM
- IC50 (CAL-33): 1.89 nM
- IC50 (EB2): 2.01 nM
- IC50 (SCC-4): 212 nM
- IC50 (SN12C): 497 nM
- IC50 (BXPC-3): 36.9 nM
- IC50 (GMS-10): > 1020 nM
- IC50 (ECC4): > 1020 nM
- IC50 (BHY): 1.14 nM
- IC50 (SCC-3): 89.6 nM
- IC50 (LN-405): > 1020 nM
- IC50 (YKG-1): < 4 nM
- IC50 (NCI-H2087): 2.14 nM
- IC50 (OVCAR-8): 7.9 nM
- IC50 (MKN-45): 17.7 nM
- IC50 (NCI-H1437): 9.42 nM
- IC50 (SW1088): > 1020 nM
- IC50 (MDA-MB-175-VII): > 1020 nM
- IC50 (MeWo): > 1020 nM
- IC50 (RPMI 8402): 45.9 nM
- IC50 (NCI-H292): 20.8 nM
- IC50 (REH): 14.5 nM
- IC50 (COLO-792): > 1020 nM
- IC50 (PF-382): 44.2 nM
- IC50 (8505C): 1.06 nM
- IC50 (HOP-92): 951 nM
- IC50 (Ca9-22): 1.54 nM
- IC50 (UMC-11): > 1020 nM
- IC50 (Raji): 431 nM
- IC50 (786-0): < 4 nM
- IC50 (COR-L105): 29.4 nM
- IC50 (GAMG): 3.74 nM
- IC50 (HCT-116): 50.8 nM
- IC50 (SK-MEL-24): > 1020 nM
- IC50 (BPH-1): 20.3 nM
- IC50 (NCI-H2081): 311 nM
- IC50 (NCI-H2196): > 1020 nM
- IC50 (SNU-387): 827 nM
- IC50 (HCC70): > 1020 nM
- IC50 (SBC-5): < 4 nM
- IC50 (NCI-H1703): 31.8 nM
- IC50 (ESS-1): < 4 nM
- IC50 (TE-15): < 4 nM
- IC50 (HuP-T4): 27.3 nM
- IC50 (HPAF-II): 428 nM

Structure (SMILES): O=C(O)c1ccc(-c2c[nH]c3ncc(-c4ccccc4)cc23)cc1C1CCCC1 [GSK-650394]
- IC50 (KARPAS-422): > 16000 nM
- IC50 (CAL-33): 9960 nM
- IC50 (EB2): > 16000 nM
- IC50 (SCC-4): > 16000 nM
- IC50 (SN12C): > 16000 nM
- IC50 (BXPC-3): > 16000 nM
- IC50 (GMS-10): > 16000 nM
- IC50 (ECC4): > 16000 nM
- IC50 (BHY): 4920 nM
- IC50 (SCC-3): > 16000 nM
- IC50 (LN-405): > 16000 nM
- IC50 (YKG-1): 7390 nM
- IC50 (NCI-H2087): 13400 nM
- IC50 (OVCAR-8): 11300 nM
- IC50 (MKN-45): > 16000 nM
- IC50 (NCI-H1437): 6130 nM
- IC50 (SW1088): > 16000 nM
- IC50 (MDA-MB-175-VII): > 16000 nM
- IC50 (MeWo): > 16000 nM
- IC50 (RPMI 8402): > 16000 nM
- IC50 (NCI-H292): > 16000 nM
- IC50 (REH): > 16000 nM
- IC50 (COLO-792): > 16000 nM
- IC50 (PF-382): > 16000 nM
- IC50 (8505C): 7780 nM
- IC50 (HOP-92): > 16000 nM
- IC50 (Ca9-22): > 16000 nM
- IC50 (UMC-11): > 16000 nM
- IC50 (Raji): > 16000 nM
- IC50 (786-0): 2950 nM
- IC50 (COR-L105): > 16000 nM
- IC50 (GAMG): 3900 nM
- IC50 (HCT-116): > 16000 nM
- IC50 (SK-MEL-24): > 16000 nM
- IC50 (BPH-1): > 16000 nM
- IC50 (NCI-H2081): > 16000 nM
- IC50 (NCI-H2196): > 16000 nM
- IC50 (SNU-387): > 16000 nM
- IC50 (HCC70): > 16000 nM
- IC50 (SBC-5): 14900 nM
- IC50 (NCI-H1703): > 16000 nM
- IC50 (ESS-1): > 16000 nM
- IC50 (TE-15): 2590 nM
- IC50 (HuP-T4): 8500 nM
- IC50 (HPAF-II): > 16000 nM
